Laboratory results: PubChem BioAssay (NCI)
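The concentration for 50% growth inhibition is given as GI50. Definition used: TGI = concentration required for complete inhibition of growth.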

How the values were obtained:
Assay in all cases: growth of human tumour cells (NCI), 384-well format
NCI-H23 lung = test system: NCI-H23 lung
TK-10 renal = test system: TK-10 renal
HOP-92 NSCLC = test system: HOP-92 NSCLC
DU-145 prostate = test system: DU-145 prostate
OVCAR-5 ovarian = test system: OVCAR-5 ovarian
HS 578T breast = test system: HS 578T breast
SN12C renal = test system: SN12C renal
A498 renal = test system: A498 renal
OVCAR-3 ovarian = test system: OVCAR-3 ovarian
UO-31 renal = test system: UO-31 renal
SW-620 colon = test system: SW-620 colon
HOP-62 NSCLC = test system: HOP-62 NSCLC
SK-OV-3 ovarian = test system: SK-OV-3 ovarian
CAKI-1 renal = test system: CAKI-1 renal
HCT-116 colon = test system: HCT-116 colon
SF-295 CNS = test system: SF-295 CNS
RPMI-8226 leukemia = test system: RPMI-8226 leukemia
SF-539 CNS = test system: SF-539 CNS
NCI/ADR-RES ovarian = test system: NCI/ADR-RES ovarian
LOX IMVI melanoma = test system: LOX IMVI melanoma
T-47D breast = test system: T-47D breast
786-0 renal = test system: 786-0 renal
NCI-H322M lung = test system: NCI-H322M lung
CCRF-CEM leukemia = test system: CCRF-CEM leukemia
UACC-62 melanoma = test system: UACC-62 melanoma
K-562 leukemia = test system: K-562 leukemia
HL-60(TB) leukemia = test system: HL-60(TB) leukemia
UACC-257 melanoma = test system: UACC-257 melanoma
SF-268 CNS = test system: SF-268 CNS
NCI-H226 lung = test system: NCI-H226 lung
OVCAR-8 ovarian = test system: OVCAR-8 ovarian
COLO 205 colon = test system: COLO 205 colon
MDA-MB-468 breast = test system: MDA-MB-468 breast
SNB-75 CNS = test system: SNB-75 CNS
HCT-15 colon = test system: HCT-15 colon
EKVX NSCLC = test system: EKVX NSCLC
RXF 393 renal = test system: RXF 393 renal
HCC-2998 colon = test system: HCC-2998 colon
SNB-19 CNS = test system: SNB-19 CNS
HT29 colon = test system: HT29 colon
MDA-MB-435 melanoma = test system: MDA-MB-435 melanoma
M14 melanoma = test system: M14 melanoma
MCF7 breast = test system: MCF7 breast
NCI-H522 lung = test system: NCI-H522 lung
NCI-H460 NSCLC = test system: NCI-H460 NSCLC
OVCAR-4 ovarian = test system: OVCAR-4 ovarian
SK-MEL-28 melanoma = test system: SK-MEL-28 melanoma
MALME-3M melanoma = test system: MALME-3M melanoma
MDA-MB-231 breast = test system: MDA-MB-231 breast
A549 NSCLC = test system: A549 NSCLC
MOLT-4 leukemia = test system: MOLT-4 leukemia
BT-549 breast = test system: BT-549 breast
ACHN renal = test system: ACHN renal
IGROV1 ovarian = test system: IGROV1 ovarian
KM12 colon = test system: KM12 colon
SK-MEL-5 melanoma = test system: SK-MEL-5 melanoma
U251 glioblastoma = test system: U251 glioblastoma
PC-3 prostate = test system: PC-3 prostate

Which results are given for `CNC(=O)c1ccc(Nc2nc(OC3CCCC3)c3c(-c4ccc5nc(C)oc5c4)c[nH]c3n2)c(OC)c1`?
GI50 (NCI-H23 lung): 64.3 nM; TGI (NCI-H23 lung): 615 nM; GI50 (TK-10 renal): 626 nM; TGI (TK-10 renal): > 100 µM; GI50 (HOP-92 NSCLC): 681 nM; TGI (HOP-92 NSCLC): 9.34 µM; GI50 (DU-145 prostate): 74.3 nM; TGI (DU-145 prostate): 15.8 µM; GI50 (OVCAR-5 ovarian): 146 nM; TGI (OVCAR-5 ovarian): > 100 µM; GI50 (HS 578T breast): 77.5 nM; TGI (HS 578T breast): 891 nM; GI50 (SN12C renal): 224 nM; TGI (SN12C renal): 2760 nM; GI50 (A498 renal): 239 nM; TGI (A498 renal): 9.43 µM; GI50 (OVCAR-3 ovarian): 169 nM; TGI (OVCAR-3 ovarian): 965 nM; GI50 (UO-31 renal): 89.8 nM; TGI (UO-31 renal): > 100 µM; GI50 (SW-620 colon): 53.5 nM; TGI (SW-620 colon): 762 nM; GI50 (HOP-62 NSCLC): 37.6 nM; TGI (HOP-62 NSCLC): 5.77 µM; GI50 (SK-OV-3 ovarian): 352 nM; TGI (SK-OV-3 ovarian): 5.28 µM; GI50 (CAKI-1 renal): 387 nM; TGI (CAKI-1 renal): 3.29 µM; GI50 (HCT-116 colon): 46.7 nM; TGI (HCT-116 colon): 11 µM; GI50 (SF-295 CNS): 265 nM; TGI (SF-295 CNS): > 100 µM; GI50 (RPMI-8226 leukemia): 61.8 nM; TGI (RPMI-8226 leukemia): 271 nM; GI50 (SF-539 CNS): 47.6 nM; TGI (SF-539 CNS): 1840 nM; GI50 (NCI/ADR-RES ovarian): 316 nM; TGI (NCI/ADR-RES ovarian): 60.5 µM; GI50 (LOX IMVI melanoma): 45.4 nM; TGI (LOX IMVI melanoma): 14.2 µM; GI50 (T-47D breast): 250 nM; TGI (T-47D breast): > 100 µM; GI50 ([…]-0 renal): 65 nM; TGI (786-0 renal): 14.2 µM; GI50 (NCI-H322M lung): 593 nM; TGI (NCI-H322M lung): 52.8 µM; GI50 (CCRF-CEM leukemia): 22.6 nM; TGI (CCRF-CEM leukemia): 44.5 nM; GI50 (UACC-62 melanoma): 167 nM; TGI (UACC-62 melanoma): 96.4 µM; GI50 (K-562 leukemia): 121 nM; TGI (K-562 leukemia): 19.4 µM; GI50 (HL-60(TB) leukemia): 40.8 nM; TGI (HL-60(TB) leukemia): 1310 nM; GI50 (UACC-257 melanoma): 328 nM; TGI (UACC-257 melanoma): 47.3 µM; GI50 (SF-268 CNS): 18.5 nM; TGI (SF-268 CNS): 72.7 nM; GI50 (NCI-H226 lung): 381 nM; TGI (NCI-H226 lung): 9.7 µM; GI50 (OVCAR-8 ovarian): 45.8 nM; TGI (OVCAR-8 ovarian): 12.5 µM; GI50 (COLO 205 colon): 33.1 nM; TGI (COLO 205 colon): 233 nM; GI50 (MDA-MB-468 breast): 45.4 nM; TGI (MDA-MB-468 breast): 226 nM; GI50 (SNB-75 CNS): 68.6 nM; TGI (SNB-75 CNS): 1780 nM; GI50 (HCT-15 colon): 37.5 nM; TGI (HCT-15 colon): 2840 nM; GI50 (EKVX NSCLC): 187 nM; TGI (EKVX NSCLC): 15.3 µM; GI50 (RXF 393 renal): 106 nM; TGI (RXF 393 renal): 1960 nM; GI50 (HCC-2998 colon): 24.5 µM; TGI (HCC-2998 colon): > 100 µM; GI50 (SNB-19 CNS): 225 nM; TGI (SNB-19 CNS): 41.6 µM; GI50 (HT29 colon): 84.5 nM; TGI (HT29 colon): > 100 µM; GI50 (MDA-MB-435 melanoma): 11 µM; TGI (MDA-MB-435 melanoma): 49.1 µM; GI50 (M14 melanoma): 84.3 nM; TGI (M14 melanoma): 63.8 µM; GI50 (MCF7 breast): 130 nM; TGI (MCF7 breast): 15.7 µM; GI50 (NCI-H522 lung): 99.8 nM; TGI (NCI-H522 lung): 1440 nM; GI50 (NCI-H460 NSCLC): 34.8 nM; TGI (NCI-H460 NSCLC): 1710 nM; GI50 (OVCAR-4 ovarian): 1900 nM; TGI (OVCAR-4 ovarian): 17.7 µM; GI50 (SK-MEL-28 melanoma): 5.58 µM; TGI (SK-MEL-28 melanoma): 30.5 µM; GI50 (MALME-3M melanoma): 93.6 nM; TGI (MALME-3M melanoma): 14.2 µM; GI50 (MDA-MB-231 breast): 290 nM; TGI (MDA-MB-231 breast): > 100 µM; GI50 (A549 NSCLC): 22.3 nM; TGI (A549 NSCLC): 2890 nM; GI50 (MOLT-4 leukemia): 11.8 nM; TGI (MOLT-4 leukemia): 30.4 nM; GI50 (BT-549 breast): 94.9 nM; TGI (BT-549 breast): 65.1 µM; GI50 (ACHN renal): 87.8 nM; TGI (ACHN renal): 15.5 µM; GI50 (IGROV1 ovarian): 145 nM; TGI (IGROV1 ovarian): 15.8 µM; GI50 (KM12 colon): 81.7 nM; TGI (KM12 colon): > 100 µM; GI50 (SK-MEL-5 melanoma): 73.5 nM; TGI (SK-MEL-5 melanoma): 1550 nM; GI50 (U251 glioblastoma): 63 nM; TGI (U251 glioblastoma): 16 µM; GI50 (PC-3 prostate): 896 nM; TGI (PC-3 prostate): 15.2 µM
